Patent US12465609B2, “Methods of treating patients suffering from a disease condition or disorder that is associated with an increased glutamate level” (veriNOS operations GmbH, priority 2022, dated 2025)

System: patients with acute moderate and severe TBI
Assay: NOSTRA III phase III trial, clinical outcome (eGOS, therapy intensity level) in TBI patients
Type: in vivo, human
Conditions: for proportion of low TIL levels (3-10 points): patients of 18-39 years; for eGOS median at 6 months: placebo 5
Experimental: Based on the results of the earlier phase II study, the NOSTRA III (NO Synthase in TRAumatic Brain Injury) phase III trial was designed to detect clinically relevant differences in clinical outcome (Extended Glasgow Outcome Score at 6 months after injury) as primary endpoint. In addition, the extracellular intracerebral glutamate levels and lactate levels of these TBI patients were also determined in an exploratory approach to monitor the metabolic state of the patients.
Trials. 2020. A total of 224 evaluable patients with moderate and severe TBI were enrolled in 32 centres in Austria, France, Germany, Spain, and United Kingdom. The trial started on 24 Aug. 2016 with last-patient last-visit on 17 Jun. 2020.
Patients between 18 and 60 years of age with Glasgow Coma Score ≥3 requiring intracranial pressure (ICP) monitoring were enrolled. Other inclusion criteria were TBI within the last 18 hours but at least 6 hours after the injury, which were expected to survive more than 24 hours after admission.
The eGOS was determined by a face to face meeting by trained assessors.
The null-hypothesis of no shift across the 8 ordered categories of eGOS for the two treatment groups was tested after six months based on a proportional odds model stratified by age (18-39 years and 40-60 years). […] Treatment and age (18-39 years and 40-60 years) were included in the model. The proportional odds assumption was tested using a Chi-Square Score Test.
The main objective of the post hoc analyses was to estimate the effect size of VAS203 compared with placebo for the primary endpoint eGOS-I (eGOS-Interview) in the subgroups time to infusion ≤12 hours and >12 hours. Supportive analyses were conducted by age group (<40 years, ≥40 years) because age group was used as a stratification factor in the study. Comparability between treatment groups regarding demographics as well as severity and location of disease was investigated using similar methods as in the main CSR.
The proportions of patients per eGOS-I level at 3 months and at 6 months were calculated. For the change in eGOS-I over time, the proportion of patients with changes from 3 to 6 months were calculated by eGOS-I level, and in addition categorised as decreased (i.e. any decrease in eGOS-I level from 3 to 6 months), unchanged (i.e. no change in eGOS-I level from 3 to 6 months), and increased (i.e. any increase in eGOS-I level from 3 to 6 months).
Ordinal logistic regression was used for the analysis of eGOS-I at 3 months and at 6 months, including treatment group and age group (<40 years, ≥40 years) as factors in the model. Estimated odds ratios for the comparison of the VAS203 and placebo groups of >1 mean that eGOS-I was higher in the VAS203 group than in the placebo group across the 8 levels, whereas odds ratios of <1 mean that eGOS-I was lower in the VAS203 group than in the placebo group. Odds ratios together with their 95% CIs were used to estimate and assess the size of the treatment effect of VAS203 compared to placebo. Proportional […] were assumed as valid for all these analyses because ordinal logistic regression analysis is known to be robust against deviations from this assumption; also, the power of assumption checking would be low for small subgroups.
Based on the time-dependent activation of pathologic cascades during the early phase after TBI and the benefits observed with an infusion of VAS203 during the initial 12 hours after TBI in the Phase IIa trial [Stover], a post-hoc-analysis was performed to determine whether patients in whom VAS203 was infused ≤12 hours after TBI, show better clinical improvement compared to patients in whom infusion was started >12 hours after TBI.

SMILES: C[C@H](O)[C@H](O)C1CNc2nc(N)nc(N)c2N1 (mixture of isomers) [Ronopterin, 4-Amino-(6R,S)-5,6,7,8-tetrahydro-L-biopterin]
- proportion of patients with Good Recovery (18-39 years, late infusion >12 hours, placebo 38%): 30%
- proportion of patients with Good Recovery (40-60 years, late infusion >12 hours, placebo 19%): 20%
- proportion of patients with Good Recovery (patients aged 18-39 years, early infusion ≤12 hours, placebo 32%): 45%
- proportion of patients with Good Recovery (patients aged 40-60 years, early infusion, placebo 8%): 27%
- proportion of low TIL levels (3-10 points) (second week after TBI, placebo 64%, p=0.0002): 81%
- proportion of low TIL levels (3-10 points) (placebo 62%, p=0.01): 71%
- NNT for Good Recovery (time to infusion <12 hours): 8
- increase of proportion of patients with a Good Recovery at 6 months compared to the Placebo group (time to infusion <12 hours): 61%
- proportion of patients with Good Recovery (eGOS 7 and 8) (time to infusion <12 hours, placebo 23%, ns): 37%
- eGOS median at 6 months (time to infusion >12 hours): 5
- proportion of patients with Good Recovery at 6 months (time to infusion >12 hours, placebo 28%): 25%
- eGOS median at 6 months (time to infusion ≤12 hours, not significant): 6
- overall eGOS-I rating at 6 months vs placebo (primary efficacy endpoint) (total dose 17 mg/kg infused for 48 hours, ordinal logistic regression): No difference
